The text below walks through data of US9708314B2, “Heterocyclic amide compound” (NISSAN CHEMICAL INDUSTRIES, LTD., priority 2013, dated 2017).

Type in all cases: in vivo
The subject of data set [1] is Echinochloa oryzacola Vasing. Nature of the data set: Test Example 2: herbicidal activity, application during weed generation in submerged conditions. Conditions: Eighteenth Table. The gist of the method: (§1)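 Post-emergence application under submerged conditions: water-diluted emulsion dosed onto the water surface (g/ha) when weeds reach one- to two-leaf stage. Soil flooded to 4 cm; greenhouse 25–30 °C. Herbicidal ratio graded in six classes, 0 (≤5%) to 5 (≥90%), at three weeks.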

The next data set concerns Monochoria vaginalis. The description is as above. Conditions: Eighteenth Table. The method in brief:
as §1

The next data set deals with Scirpus juncoides. The data set is described as above. Conditions: Eighteenth Table. The method in brief:
as §1

Another data set has as its system Cyperus difformis. Nature of the data set: Test Example 3: herbicidal effect by application to foliage (Wagner pot, water depth 0.1-0.5 cm). The note with it: Nineteenth Table; for E (Cyperus difformis) herbicidal ratio grade: application herbicide amount 320 g/ha. The method in brief: (§2)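 Visual 0–5 rating of herbicidal ratio, taken 3 weeks after foliar spray of a diluted emulsion formulation at rates expressed as g/ha. Plants had been sown in alluvial soil under 0.1–0.5 cm water and grown 14 days at 25–30 °C under glass before application.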

For data set [2], the system named is Echinochloa crus-galli var. crus-galli. Described as above. Conditions: Nineteenth Table; for H (Echinochloa crus-galli var. crus-galli) herbicidal ratio grade: application herbicide amount 320 g/ha. The gist of the method: as §2
The subject of the next data set is Leptochloa chinensis. The data set is described as above. The note with it: Nineteenth Table; for D (Leptochloa chinensis) herbicidal ratio grade: application herbicide amount 320 g/ha. The method in brief: as §2
For data set [3], the system named is directly sowed Oryza sativa. Nature of the data set: Test Example 3: effect on crop by application to foliage (Wagner pot, water depth 0.1-0.5 cm). Conditions: Nineteenth Table; for b (directly sowed Oryza sativa) effect on crop grade: application herbicide amount 320 g/ha. The method in brief: as §2
For the next data set, the system named is Amaranthus retroflexus. Briefly: Test Example 4: herbicidal effect by application to foliage (diluvial soil, plastic box). Conditions: for N (Amaranthus retroflexus) herbicidal effect: application to foliage, application herbicide amount 320 g/ha. The method in brief:
(§3)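 Emulsion-formulated compound, diluted to a predetermined g/ha dose, applied by small sprayer to leaves and stems of 14-day-old seedlings grown in sterilized diluvial soil. Effect rated on 0–5 herbicidal-ratio scale three weeks on.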

The test system of a further data set is Stellaria media. The description is as above. The note with it: for P (Stellaria media) herbicidal effect: application to foliage, application herbicide amount 320 g/ha. The method in brief: as §3
The mark [4] stands for this setting: application herbicide amount 320 g/ha.
The mark [5] stands for this setting: application herbicide amount 192 g/ha.
Where [6] appears, read: application to foliage, application herbicide amount 192 g/ha.

For `Cc1nnc(NC(=O)c2ccc(C(F)(F)F)n3c(C4CCCC4)nnc23)o1` [1-026], the “A (Echinochloa oryzicola Vasing.) herbicidal ratio grade” value in data set [1] (setting [4]) was 3 (Herbicidal ratio of 40% or more and less than 70%). Also, the “C (Monochoria vaginalis) herbicidal ratio grade” value in the data set on Monochoria vaginalis (setting [4]) is on record as 0 (Herbicidal ratio of 5% or less (almost no effect)). Also, the “B (Scirpus juncoides) herbicidal ratio grade” value in the data set with Scirpus juncoides (setting [4]) was 1 (Herbicidal ratio of 5% or more and less than 20%). Also, the “E (Cyperus difformis) herbicidal ratio grade” value with Cyperus difformis was 4 (Herbicidal ratio of 70% or more and less than 90%). In data set [2], the “H (Echinochloa crus-galli var. crus-galli) herbicidal ratio grade” value is recorded as 5 (Herbicidal ratio of 90% or more (almost completely withered)). Also, the “D (Leptochloa chinensis) herbicidal ratio grade” value in the data set with Leptochloa chinensis is 4 (Herbicidal ratio of 70% or more and less than 90%). The “b (directly sowed Oryza sativa) effect on crop grade” value in data set [3] was 4 (Herbicidal ratio of 70% or more and less than 90%). Further, in the data set on Amaranthus retroflexus, the “N (Amaranthus retroflexus) herbicidal effect” value is 4 (Herbicidal ratio of 70% or more and less than 90%). Moreover, in the data set with Stellaria media, the “P (Stellaria media) herbicidal effect” value is given as 5 (Herbicidal ratio of 90% or more (almost completely withered)).

For `Cc1nnc(NC(=O)c2ccc(C(F)(F)F)n3c(SC(C)C)nnc23)o1` [1-033], the “A (Echinochloa oryzicola Vasing.) herbicidal ratio grade” value in [1] (setting [4]) is 4 (Herbicidal ratio of 70% or more and less than 90%). The “C (Monochoria vaginalis) herbicidal ratio grade” value in the data set on Monochoria vaginalis (setting [4]) is 3 (Herbicidal ratio of 40% or more and less than 70%). Also, the “B (Scirpus juncoides) herbicidal ratio grade” value in the data set with Scirpus juncoides (setting [4]) is 4 (Herbicidal ratio of 70% or more and less than 90%). In addition, the “E (Cyperus difformis) herbicidal ratio grade” value in the data set on Cyperus difformis was 5 (Herbicidal ratio of 90% or more (almost completely withered)). Also, the “H (Echinochloa crus-galli var. crus-galli) herbicidal ratio grade” value in [2] is 5 (Herbicidal ratio of 90% or more (almost completely withered)). For the same compound, the “D (Leptochloa chinensis) herbicidal ratio grade” value in the data set with Leptochloa chinensis is recorded as 5 (Herbicidal ratio of 90% or more (almost completely withered)). The “b (directly sowed Oryza sativa) effect on crop grade” value in data set [3] is 1 (Herbicidal ratio of 5% or more and less than 20%). Besides, the “N (Amaranthus retroflexus) herbicidal effect” value in the data set on Amaranthus retroflexus is on record as 5 (Herbicidal ratio of 90% or more (almost completely withered)). Besides, the “P (Stellaria media) herbicidal effect” value in the data set on Stellaria media was 5 (Herbicidal ratio of 90% or more (almost completely withered)).

Turning to `COCCc1nnc(NC(=O)c2ccc(C(F)(F)F)n3c(C(C)C)nnc23)o1` [1-052], the “A (Echinochloa oryzicola Vasing.) herbicidal ratio grade” value in data set [1] (setting [4]) was 1 (Herbicidal ratio of 5% or more and less than 20%). In the data set on Monochoria vaginalis (setting [4]), the “C (Monochoria vaginalis) herbicidal ratio grade” value is recorded as 0 (Herbicidal ratio of 5% or less (almost no effect)). For the same compound, in the data set with Scirpus juncoides (setting [4]), the “B (Scirpus juncoides) herbicidal ratio grade” value is 1 (Herbicidal ratio of 5% or more and less than 20%). Besides, the “E (Cyperus difformis) herbicidal ratio grade” value in the data set with Cyperus difformis is 5 (Herbicidal ratio of 90% or more (almost completely withered)). Also, the “H (Echinochloa crus-galli var. crus-galli) herbicidal ratio grade” value in data set [2] is 4 (Herbicidal ratio of 70% or more and less than 90%). The “D (Leptochloa chinensis) herbicidal ratio grade” value with Leptochloa chinensis was 5 (Herbicidal ratio of 90% or more (almost completely withered)). In addition, the “b (directly sowed Oryza sativa) effect on crop grade” value in data set [3] is given as 0 (Herbicidal ratio of 5% or less (almost no effect)). Further, the “N (Amaranthus retroflexus) herbicidal effect” value in the data set with Amaranthus retroflexus is 4 (Herbicidal ratio of 70% or more and less than 90%). Moreover, the “P (Stellaria media) herbicidal effect” value with Stellaria media is 2 (Herbicidal ratio of 20% or more and less than 40%).

`Cc1nnc(NC(=O)c2ccc(C(F)F)n3c(C(C)C)nnc23)o1` [1-053]: the “A (Echinochloa oryzicola Vasing.) herbicidal ratio grade” value in [1] (setting [4]) is 1 (Herbicidal ratio of 5% or more and less than 20%). Besides, the “C (Monochoria vaginalis) herbicidal ratio grade” value in the data set on Monochoria vaginalis (setting [4]) was 0 (Herbicidal ratio of 5% or less (almost no effect)). Further, the “B (Scirpus juncoides) herbicidal ratio grade” value in the data set with Scirpus juncoides (setting [4]) was 2 (Herbicidal ratio of 20% or more and less than 40%). Further, the “E (Cyperus difformis) herbicidal ratio grade” value with Cyperus difformis was 4 (Herbicidal ratio of 70% or more and less than 90%). Moreover, in data set [2], the “H (Echinochloa crus-galli var. crus-galli) herbicidal ratio grade” value was 4 (Herbicidal ratio of 70% or more and less than 90%). Besides, in the data set on Leptochloa chinensis, the “D (Leptochloa chinensis) herbicidal ratio grade” value was 4 (Herbicidal ratio of 70% or more and less than 90%). In [3], the “b (directly sowed Oryza sativa) effect on crop grade” value was 0 (Herbicidal ratio of 5% or less (almost no effect)). Moreover, the “N (Amaranthus retroflexus) herbicidal effect” value in the data set on Amaranthus retroflexus is 4 (Herbicidal ratio of 70% or more and less than 90%). In addition, the “P (Stellaria media) herbicidal effect” value in the data set on Stellaria media was 2 (Herbicidal ratio of 20% or more and less than 40%).

With `Cc1ccc(-c2nnc3c(C(=O)Nc4nnc(C)o4)ccc(C(F)(F)F)n23)cc1` [1-043], the “A (Echinochloa oryzicola Vasing.) herbicidal ratio grade” value in data set [1] (setting [4]) is 3 (Herbicidal ratio of 40% or more and less than 70%). Also, the “C (Monochoria vaginalis) herbicidal ratio grade” value in the data set with Monochoria vaginalis (setting [4]) is 3 (Herbicidal ratio of 40% or more and less than 70%). Further, the “B (Scirpus juncoides) herbicidal ratio grade” value with Scirpus juncoides (setting [4]) is 3 (Herbicidal ratio of 40% or more and less than 70%). Also, the “E (Cyperus difformis) herbicidal ratio grade” value with Cyperus difformis is reported as 5 (Herbicidal ratio of 90% or more (almost completely withered)). Moreover, in data set [2], the “H (Echinochloa crus-galli var. crus-galli) herbicidal ratio grade” value is listed as 5 (Herbicidal ratio of 90% or more (almost completely withered)). Also, in the data set with Leptochloa chinensis, the “D (Leptochloa chinensis) herbicidal ratio grade” value was 4 (Herbicidal ratio of 70% or more and less than 90%). Further, the “b (directly sowed Oryza sativa) effect on crop grade” value in data set [3] is recorded as 5 (Herbicidal ratio of 90% or more (almost completely withered)). Besides, the “N (Amaranthus retroflexus) herbicidal effect” value in the data set with Amaranthus retroflexus was 5 (Herbicidal ratio of 90% or more (almost completely withered)). Further, the “P (Stellaria media) herbicidal effect” value in the data set on Stellaria media is 4 (Herbicidal ratio of 70% or more and less than 90%).

With `Cc1cc(C(=O)Nc2nnnn2C)c2nnc(C(C)C)n2c1C(F)(F)F` [2-050], in [1] (setting [5]), the “A (Echinochloa oryzicola Vasing.) herbicidal ratio grade” value is 1 (Herbicidal ratio of 5% or more and less than 20%). Moreover, the “C (Monochoria vaginalis) herbicidal ratio grade” value with Monochoria vaginalis (setting [5]) is 2 (Herbicidal ratio of 20% or more and less than 40%). The “B (Scirpus juncoides) herbicidal ratio grade” value in the data set with Scirpus juncoides (setting [5]) was 0 (Herbicidal ratio of 5% or less (almost no effect)). In the data set on Cyperus difformis (setting [6]), the “E (herbicidal effect grade)” value is 3 (Herbicidal ratio of 40% or more and less than 70%). The “H (herbicidal effect grade)” value in [2] (setting [6]) was 4 (Herbicidal ratio of 70% or more and less than 90%). Moreover, in the data set with Leptochloa chinensis (setting [6]), the “D (herbicidal effect grade)” value was 3 (Herbicidal ratio of 40% or more and less than 70%). In [3] (setting [6]), the “b (effect on crop grade)” value is listed as 0 (Herbicidal ratio of 5% or less (almost no effect)). The “N (Amaranthus retroflexus) herbicidal effect grade” value in the data set on Amaranthus retroflexus (foliage application, 192 g/ha) was 2 (Herbicidal ratio of 20% or more and less than 40%). In addition, the “P (Stellaria media) herbicidal effect grade” value in the data set on Stellaria media (foliage application, 192 g/ha) was 3 (Herbicidal ratio of 40% or more and less than 70%).

Regarding `CCSc1nnc2c(C(=O)Nc3nnc(C)o3)ccc(C(F)(F)F)n12` [1-032], the “A (Echinochloa oryzicola Vasing.) herbicidal ratio grade” value in data set [1] (setting [4]) is 4 (Herbicidal ratio of 70% or more and less than 90%). The “C (Monochoria vaginalis) herbicidal ratio grade” value in the data set with Monochoria vaginalis (setting [4]) was 3 (Herbicidal ratio of 40% or more and less than 70%). The “B (Scirpus juncoides) herbicidal ratio grade” value in the data set on Scirpus juncoides (setting [4]) is 3 (Herbicidal ratio of 40% or more and less than 70%). Besides, in the data set with Cyperus difformis, the “E (Cyperus difformis) herbicidal ratio grade” value is on record as 5 (Herbicidal ratio of 90% or more (almost completely withered)). In [2], the “H (Echinochloa crus-galli var. crus-galli) herbicidal ratio grade” value is listed as 5 (Herbicidal ratio of 90% or more (almost completely withered)). Besides, in the data set with Leptochloa chinensis, the “D (Leptochloa chinensis) herbicidal ratio grade” value is reported as 5 (Herbicidal ratio of 90% or more (almost completely withered)). In [3], the “b (directly sowed Oryza sativa) effect on crop grade” value was 2 (Herbicidal ratio of 20% or more and less than 40%). The “N (Amaranthus retroflexus) herbicidal effect” value with Amaranthus retroflexus is on record as 5 (Herbicidal ratio of 90% or more (almost completely withered)). In the data set on Stellaria media, the “P (Stellaria media) herbicidal effect” value was 5 (Herbicidal ratio of 90% or more (almost completely withered)).

Consider `Cc1nnc(NC(=O)c2ccc(C(F)(F)F)n3cnnc23)o1` [1-001], for which the “A (Echinochloa oryzicola Vasing.) herbicidal ratio grade” value in [1] (setting [4]) is 4 (Herbicidal ratio of 70% or more and less than 90%). Further, in the data set with Monochoria vaginalis (setting [4]), the “C (Monochoria vaginalis) herbicidal ratio grade” value was 2 (Herbicidal ratio of 20% or more and less than 40%). The “B (Scirpus juncoides) herbicidal ratio grade” value with Scirpus juncoides (setting [4]) is 4 (Herbicidal ratio of 70% or more and less than 90%). In addition, in the data set with Cyperus difformis, the “E (Cyperus difformis) herbicidal ratio grade” value was 4 (Herbicidal ratio of 70% or more and less than 90%). Also, the “H (Echinochloa crus-galli var. crus-galli) herbicidal ratio grade” value in [2] is on record as 5 (Herbicidal ratio of 90% or more (almost completely withered)). Also, in the data set with Leptochloa chinensis, the “D (Leptochloa chinensis) herbicidal ratio grade” value was 5 (Herbicidal ratio of 90% or more (almost completely withered)). Also, the “b (directly sowed Oryza sativa) effect on crop grade” value in [3] is recorded as 0 (Herbicidal ratio of 5% or less (almost no effect)). In addition, in the data set on Amaranthus retroflexus, the “N (Amaranthus retroflexus) herbicidal effect” value is 3 (Herbicidal ratio of 40% or more and less than 70%). Further, in the data set with Stellaria media, the “P (Stellaria media) herbicidal effect” value was 4 (Herbicidal ratio of 70% or more and less than 90%).
